From ChEMBL document CHEMBL3217615, “Novel 3,5-bis(arylidiene)-4-piperidone based monocarbonyl analogs of curcumin: anticancer activity evaluation and mode of action study” (2014)

How the values were obtained:
Format in all cases: functional
[1] = Growth inhibition of human NCI-ADR-RES cells assessed as cell growth at 10^-5 M after 48 hrs by sulforhodamine B assay; conditions: read-out: Activity
[2] = Growth inhibition of human OVCAR8 cells assessed as cell growth at 10^-5 M after 48 hrs by sulforhodamine B assay; conditions: OVCAR-8, 48 h, read-out: Activity
[3] = Growth inhibition of human OVCAR3 cells assessed as cell growth at 10^-5 M after 48 hrs by sulforhodamine B assay; conditions: OVCAR-3, 48 h, read-out: Activity
[4] = system: IGROV-1; assay: Growth inhibition of human IGROV1 cells assessed as cell growth at 10^-5 M after 48 hrs by sulforhodamine B assay; conditions: IGROV-1, 48 h, read-out: Activity
[5] = system: SK-MEL-5; assay: Growth inhibition of human SK-MEL-5 cells assessed as cell growth at 10^-5 M after 48 hrs by sulforhodamine B assay; conditions: SK-MEL-5, 48 h, read-out: Activity
[6] = system: SK-MEL-28; assay: Growth inhibition of human SK-MEL-28 cells assessed as cell growth at 10^-5 M after 48 hrs by sulforhodamine B assay; conditions: SK-MEL-28, 48 h, read-out: Activity
[7] = system: M14; assay: Growth inhibition of human M14 cells assessed as cell growth at 10^-5 M after 48 hrs by sulforhodamine B assay; conditions: M14, 48 h, read-out: Activity
[8] = system: MDA-MB-435; assay: Growth inhibition of human MDA-MB-435 cells assessed as cell growth at 10^-5 M after 48 hrs by sulforhodamine B assay; conditions: MDA-MB-435, 48 h, read-out: Activity
[9] = Growth inhibition of human LOXIMVI cells assessed as cell growth at 10^-5 M after 48 hrs by sulforhodamine B assay; conditions: LOX IMVI, read-out: Activity
[10] = Growth inhibition of human SF539 cells assessed as cell growth at 10^-5 M after 48 hrs by sulforhodamine B assay; conditions: SF-539, 48 h, read-out: Activity
[11] = system: SF-268; assay: Growth inhibition of human SF268 cells assessed as cell growth at 10^-5 M after 48 hrs by sulforhodamine B assay; conditions: SF-268, 48 h, read-out: Activity
[12] = system: SW-620; assay: Growth inhibition of human SW620 cells assessed as cell growth at 10^-5 M after 48 hrs by sulforhodamine B assay; conditions: SW-620, 48 h, read-out: Activity
[13] = system: KM12; assay: Growth inhibition of human KM12 cells assessed as cell growth at 10^-5 M after 48 hrs by sulforhodamine B assay; conditions: KM12, 48 h, read-out: Activity
[14] = system: HT-29; assay: Growth inhibition of human HT-29 cells assessed as cell growth at 10^-5 M after 48 hrs by sulforhodamine B assay; conditions: HT-29, 48 h, read-out: Activity
[15] = Growth inhibition of human HCT15 cells assessed as cell growth at 10^-5 M after 48 hrs by sulforhodamine B assay; conditions: HCT-15, 48 h, read-out: Activity
[16] = system: HCT-116; assay: Growth inhibition of human HCT116 cells assessed as cell growth at 10^-5 M after 48 hrs by sulforhodamine B assay; conditions: HCT-116, 48 h, read-out: Activity
[17] = system: COLO 205; assay: Growth inhibition of human COLO205 cells assessed as cell growth at 10^-5 M after 48 hrs by sulforhodamine B assay; conditions: COLO 205, 48 h, read-out: Activity
[18] = system: NCI-H460; assay: Growth inhibition of human NCI-H460 cells assessed as cell growth at 10^-5 M after 48 hrs by sulforhodamine B assay; conditions: NCI-H460, 48 h, read-out: Activity
[19] = system: NCI-H322M; assay: Growth inhibition of human NCI-H322M cells assessed as cell growth at 10^-5 M after 48 hrs by sulforhodamine B assay; conditions: read-out: Activity
[20] = system: NCI-H23; assay: Growth inhibition of human NCI-H23 cells assessed as cell growth at 10^-5 M after 48 hrs by sulforhodamine B assay; conditions: NCI-H23, 48 h, read-out: Activity
[21] = system: HOP-62; assay: Growth inhibition of human HOP62 cells assessed as cell growth at 10^-5 M after 48 hrs by sulforhodamine B assay; conditions: HOP-62, 48 h, read-out: Activity
[22] = system: SR; assay: Growth inhibition of human SR cells assessed as cell growth at 10^-5 M after 48 hrs by sulforhodamine B assay; conditions: read-out: Activity
[23] = system: HL-60(TB); assay: Growth inhibition of human HL-60(TB) cells assessed as cell growth at 10^-5 M after 48 hrs by sulforhodamine B assay; conditions: HL-60, 48 h, read-out: Activity
[24] = system: K562; assay: Growth inhibition of human K562 cells assessed as cell growth at 10^-5 M after 48 hrs by sulforhodamine B assay; conditions: K562, 48 h, read-out: Activity
[25] = system: MDA-MB-468; assay: Growth inhibition of human MDA-MB-468 cells assessed as cell growth at 10^-5 M after 48 hrs by sulforhodamine B assay; conditions: MDA-MB-468, 48 h, read-out: Activity
[26] = system: T47D; assay: Growth inhibition of human T47D cells assessed as cell growth at 10^-5 M after 48 hrs by sulforhodamine B assay; conditions: read-out: Activity
[27] = Growth inhibition of human BT549 cells assessed as cell growth at 10^-5 M after 48 hrs by sulforhodamine B assay; conditions: BT-549, 48 h, read-out: Activity
[28] = Growth inhibition of human Hs 578T cells assessed as cell growth at 10^-5 M after 48 hrs by sulforhodamine B assay; conditions: read-out: Activity
[29] = system: MCF7; assay: Growth inhibition of human MCF7 cells assessed as cell growth at 10^-5 M after 48 hrs by sulforhodamine B assay; conditions: MCF7, 48 h, read-out: Activity
[30] = Growth inhibition of human UO31 cells assessed as cell growth at 10^-5 M after 48 hrs by sulforhodamine B assay; conditions: UO-31, 48 h, read-out: Activity
[31] = system: SN12C; assay: Growth inhibition of human SN12C cells assessed as cell growth at 10^-5 M after 48 hrs by sulforhodamine B assay; conditions: read-out: Activity
[32] = system: CAKI-1; assay: Growth inhibition of human CAKI-1 cells assessed as cell growth at 10^-5 M after 48 hrs by sulforhodamine B assay; conditions: CAKI-1, 48 h, read-out: Activity
[33] = system: ACHN; assay: Growth inhibition of human ACHN cells assessed as cell growth at 10^-5 M after 48 hrs by sulforhodamine B assay; conditions: read-out: Activity
[34] = system: A498; assay: Growth inhibition of human A498 cells assessed as cell growth at 10^-5 M after 48 hrs by sulforhodamine B assay; conditions: A498, 48 h, read-out: Activity
[35] = system: 786-0; assay: Growth inhibition of human 786-0 cells assessed as cell growth at 10^-5 M after 48 hrs by sulforhodamine B assay; conditions: 786-0, 48 h, read-out: Activity
[36] = system: SK-OV-3; assay: Growth inhibition of human SKOV3 cells assessed as cell growth at 10^-5 M after 48 hrs by sulforhodamine B assay; conditions: SK-OV-3, 48 h, read-out: Activity

SMILES | growth at 10 µM [1] | growth at 10 µM [2] | growth at 10 µM [3] | growth at 10 µM [4] | growth at 10 µM [5] | growth at 10 µM [6] | growth at 10 µM [7] | growth at 10 µM [8] | growth at 10 µM [9] | growth at 10 µM [10] | growth at 10 µM [11] | growth at 10 µM [12] | growth at 10 µM [13] | growth at 10 µM [14] | growth at 10 µM [15] | growth at 10 µM [16] | growth at 10 µM [17] | growth at 10 µM [18] | growth at 10 µM [19] | growth at 10 µM [20] | further results
O=C1/C(=C/c2c(Cl)cccc2Cl)CN(S(=O)(=O)c2ccccc2)C/C1=C\c1c(Cl)cccc1Cl | 81.6% | 77.3% | 73.9% | 100% | 85.3% | 88.1% | 66.3% | 72.7% | 78% | 99.9% | 78.6% | 89.4% | 74.8% | 71.5% | 62% | 61.7% | 92.4% | 74% | 85% | 82.6% | growth at 10 µM [21]: 100%; growth at 10 µM [22]: 52.7%; growth at 10 µM [23]: 81%; growth at 10 µM [24]: 77.8%; growth at 10 µM [25]: 80.4%; growth at 10 µM [26]: 88.8%; growth at 10 µM [27]: 89.3%; growth at 10 µM [28]: 93%; growth at 10 µM [29]: 48.5%; growth at 10 µM [30]: 73.7%; growth at 10 µM [31]: 86.3%; growth at 10 µM [32]: 136%; growth at 10 µM [33]: 76.3%; growth at 10 µM [34]: 91.6%; growth at 10 µM [35]: 93%; growth at 10 µM [36]: 91.9%
Cc1ccc(S(=O)(=O)N2C/C(=C\c3c(Cl)cccc3Cl)C(=O)/C(=C/c3c(Cl)cccc3Cl)C2)cc1 | 90.9% | 79.6% | 84% | 104% | 85% | 101% | 79.1% | 93.5% | 79.4% | 106% | 83.6% | 101% | 88.7% | 83.7% | 80.7% | 74.2% | 110% | 83.3% | 93.5% | 97.7% | growth at 10 µM [21]: 94.5%; growth at 10 µM [22]: 71.1%; growth at 10 µM [23]: 94.5%; growth at 10 µM [24]: 81.6%; growth at 10 µM [25]: 90.4%; growth at 10 µM [26]: 94%; growth at 10 µM [27]: 101%; growth at 10 µM [28]: 101%; growth at 10 µM [29]: 64.5%; growth at 10 µM [30]: 72.5%; growth at 10 µM [31]: 85.6%; growth at 10 µM [32]: 61.6%; growth at 10 µM [33]: 84.2%; growth at 10 µM [34]: 109%; growth at 10 µM [35]: 93.3%; growth at 10 µM [36]: 93.7%
O=C1/C(=C/c2ccc(Cl)cc2Cl)CN(S(=O)(=O)c2ccccc2)C/C1=C\c1ccc(Cl)cc1Cl | 20.5% | -9% | -67% | -39% | 47% | 27% | 17% | -48% | -58.7% | -54.1% | 4.96% | -15.2% | -57.2% | -27.5% | -23% | -84% | -38% | -60% | -29% | -37.6% | growth at 10 µM [21]: -2.25%; growth at 10 µM [22]: -11.6%; growth at 10 µM [23]: -24%; growth at 10 µM [24]: 0.79%; growth at 10 µM [25]: -38%; growth at 10 µM [26]: 7%; growth at 10 µM [27]: -72.8%; growth at 10 µM [29]: 12%; growth at 10 µM [30]: -63%; growth at 10 µM [31]: -47%; growth at 10 µM [32]: -66.1%; growth at 10 µM [33]: -24%; growth at 10 µM [34]: -27%; growth at 10 µM [35]: -91%; growth at 10 µM [36]: 44%
Cc1ccc(S(=O)(=O)N2C/C(=C\c3cc(F)cc(F)c3)C(=O)/C(=C/c3cc(F)cc(F)c3)C2)cc1 | 7.23% | -44% | -84% | -77% | -92% | -87% | -68% | -76.6% | -98% | -72% | -43% | -79% | -82% | -78% | -35% | -94% | -73% | -53% | 25% | -33% | growth at 10 µM [21]: -60%; growth at 10 µM [22]: -21%; growth at 10 µM [23]: -14%; growth at 10 µM [24]: -19%; growth at 10 µM [25]: -73%; growth at 10 µM [26]: -20%; growth at 10 µM [27]: -89%; growth at 10 µM [28]: 8%; growth at 10 µM [29]: -75.4%; growth at 10 µM [30]: -92%; growth at 10 µM [31]: -86%; growth at 10 µM [32]: -25%; growth at 10 µM [33]: -91.4%; growth at 10 µM [34]: -59%; growth at 10 µM [35]: -87%; growth at 10 µM [36]: -26%
